Consider 2 compounds from US20160022751A1, “NOVEL COMPOSITION FOR TREATING ALZHEIMER'S DISEASE AND IMPROVING COGNITIVE FUNCTION OF ALZHEIMER'S PATIENTS” (GANGNEUNG-WONJU NATIONAL UNIVERSITY INDUSTRY ACADEMY …, priority 2014, published 2016).

Format in all cases: cell-based, mouse
The test system of one assay is NGFR (p75). The assay is described as follows: NGFR (p75) mRNA expression in N2a cells (quantitative RT-PCR). As to conditions: N2a cells (FIG. 13). From the text: (§1) Since NGF-Trk signal pathway upregulates ChAT and VAChT, it is important to know whether ginsenosides Rd and Re regulate Trk activity directly or at least indirectly. Therefore, the inventor investigated whether the expression of ChAT and VAChT was blocked by treating K252a, an inhibitor against protein kinase C (PKC) and Trk together with ginsenoside Rd or Re, in order to determine more closely whether the expression of cholinergic surface markers and the differentiation of neurons by the treatment of ginsenosides Rd and Re are caused whereby they act NGF-TrkA pathway directly. Particularly, N2a cells were treated with or without K252a (50 nM) in the presence of NGF (100 ng/mL), Re (5 μg/mL) or Rd (5 μg/mL) for 48 h. Total RNA and protein lysates were isolated as described in the Example 4-1 (FIG. 12). […] In addition, the present inventor performed quantitative RT-PCR in order to verify whether the treatment of ginsenosides Rd and Re affect the expression of NGF and NGFR in N2a cells.

The test system of the next assay is p75. The experiment in a line: p75 protein immunocytochemistry in N2a cells. The settings on record: compared with NGF (FIG. 9B). How it is done:
(§2) Followed by the RT-PCR analysis, the present inventor investigated whether ginsenosides Re and Rd induce the expression of MAP-2 and p75 and the differentiation of neurons actually, via immunocytochemistry and morphological analysis using optical microscopic observation.
(§3) Specifically, Cultured N2a cells were fixed in 4% paraformaldehyde (in PBS) for 15 min, washed twice with PBS supplemented with 100 mM glycine for 5 min, and incubated with permeabilization buffer consisting of 0.1% Triton X-100 (Sigma-Aldrich, USA) in PBS for 30 min at room temperature. Blocking was performed with 1% bovine serum albumin (BSA, Sigma-Aldrich, USA) for 30 min at room temperature. Then Microtubule-Associated Protein-2 (MAP-2) or VAChT mouse monoclonal antibody 1:200 (Santa Cruz Biotechnology, USA) was added to 1% BSA in PBS with Tween 20 (PBST) and incubated for 2 h at room temperature. Cells were then washed three times with PBS before fluorescein isothiocyanate (FITC)-conjugated anti-mouse immunoglobulin G (IgG) 1:200 (Cell Signaling Technology, USA) was added to 1% BSA for 1 h at room temperature. The cells were rinsed and counterstained with 4,6-diamidino-2-phenylindole (DAPI, Sigma-Aldrich) for 10 min, followed by two PBS washes. […]

The test system of the next assay is TrkA. The assay is described as follows: TrkA gene expression in N2a cells (quantitative RT-PCR). As to conditions: 24 h, Rd 5 μg/ml, Re 5 μg/ml or Rd/Re each 2.5 μg/ml (FIG. 11). How it is done:
On the other hand, the present inventor investigates the expression level of TrkA gene after treating ginsenoside Rd (5 μg/ml), Re (5 μg/ml) or mixture of Rd/Re (each 2.5 μg/ml) to N2a cells for 24 h, using quantitative RT-PCR method, similar to the method described in the Example 4 (FIG. 11).

For assay [1], the system named is MAP-2. The assay is described as follows: MAP-2 protein immunocytochemistry in N2a cells. The settings on record: compared with NGF (FIG. 9A). The procedure:
as §2, §3

Another assay deals with ChAT. The experiment in a line: ChAT expression in N2a cells with or without Trk inhibitor K252a. The settings on record: K252a 50 nM, ginsenoside 5 μg/mL, 48 h (FIG. 12).
Description: as §1

The subject of another assay is Akt. The experiment in a line: Akt phosphorylation in N2a cells (western blot). As to conditions: compared with NGF (FIG. 10). The text has this:
The cholinergic marker ChAT and VAChT are known activate the ERK and Akt lower level path for cholinergic gene expression (Williams et al., Neurosci. Lett., 413: 110-114, 2007; Madziar et al., J. Neurochem., 107: 1284-1293, 2007) by controlling the NGF-TrkA signaling pathway. Thus, the present inventor investigated whether ginsenosides Rd and Re regulate activity of ERK and Akt in N2a cells using through western blot analysis. Specifically, N2a cells were lysed in 1% radioimmunoprecipitation assay (RIPA) buffer containing protease and phosphatase inhibitors (Roche, Mannheim, Germany) and whole cell lysates were separated by 10% sodium dodecyl sulfate polyacrylamide gel electrophoresis (SDS-PAGE). After electrophoresis, proteins were transferred onto polyvinylidene fluoride (PVDF) membranes and the membranes were blocked with 5% skim milk in Tris-buffered saline solution containing 0.1% Tween-20. The membrane was then immunoblotted with primary antibodies, anti-phospho-Akt, anti-phospho-extracellular signal-regulated protein kinase (ERK), anti-ChAT and anti-f3-actin (Santa Cruz Biotechnology, Santa Cruz, USA), and this was followed by incubation with horseradish peroxidase-conjugated anti-rabbit or anti-mouse secondary antibodies (Stressgen, USA). Blots were developed using an enhanced chemiluminescence (ECL) solution (Thermo, USA).
In general terms: A western blot detects proteins with antibodies after separation by electrophoresis.

The subject of assay [2] is MAP-2. The assay is described as follows: MAP-2 mRNA expression in N2a cells (real-time RT-PCR). The settings on record: 5 μg/ml (FIG. 8). The procedure: Specifically, total RNA extracts from N2a cells were prepared using the Trizol method (Invitrogen, USA) and cDNA was synthesized from RNA by reverse transcription of 1 μg of total RNA using a reverse transcription system (Improm-II, Promega, USA) and oligo dT primers in a total volume of 20 μL. PCR amplification was performed using the primers described in Table 2 (Bioneer, Korea). Quantitative real-time PCR reactions were run on a Rotor-Gene 6000 (Corbett Research, Australia) using SensiMix™ SYBR Hi-ROX Kit (Bioline, U.K.) in 20 μL reaction mixtures. Each real-time-PCR master mix contained 10 μL 2× enzyme master mix, 7.0 μL RNase free water, 1 μL of each primer (10 pM each), and 1 μL diluted template. The PCR was performed with an initial pre-incubation step for 15 min at 95° C., followed by 45 cycles of 95° C. for 15 s, annealing at 52° C. for 15 s, and extension at 72° C. for 10 s. Melting curve analysis was used to confirm formation of the expected PCR product, and products from all assays were additionally tested with 1.2% agarose gel electrophoresis to confirm the correct lengths. […] Relative sample expression levels were calculated using Rotor-Gene 6000 Series Software 1.7, and were expressed relative to β-actin and corrected for between-run variability. Data for the experimental samples were expressed as a fold unit the internal control gene. […]
(Quantitative PCR measures a nucleic acid by following its amplification.)

For the compound `CC(C)=CCC[C@](C)(O[C@@H]1O[C@H](CO)[C@@H](O)[C@H](O)[C@H]1O)[C@H]1CC[C@]2(C)[C@@H]1[C@H](O)C[C@@H]1[C@@]3(C)CC[C@H](O[C@@H]4O[C@H](CO)[C@@H](O)[C@H](O)[C@H]4O[C@@H]4O[C@H](CO)[C@@H](O)[C@H](O)[C@H]4O)C(C)(C)[C@@H]3CC[C@]12C` [ginsenoside Rd], in the assay on NGFR (p75), the “NGFR (p75) mRNA level” value is given as “significantly increased”. For the same compound, the p75 protein expression result with p75 is recorded as “switched to p75-positive N2a cells to the same or more extent as NGF”. Also, the “expression of TrkA” value in the assay on TrkA is on record as “increased the expression of TrkA in a dose-dependent manner”. Also, the “production of MAP-2 protein” value in the assay on MAP-2 [1] was “stimulated effectively the production of MAP-2 protein”. For the same compound, in the assay with ChAT, the “ChAT expression on co-treatment with K252a compared with single treatment” value was “inhibited”. For the same compound, the “Akt activation (phosphorylation)” value with Akt was “could activate ERK and Akt with phosphorylation as much as NGF”. Also, the “expression of MAP-2 mRNA” value in the assay on MAP-2 [2] is “significantly increased”.

Turning to `CC(C)=CCC[C@](C)(O[C@@H]1O[C@H](CO)[C@@H](O)[C@H](O)[C@H]1O)[C@H]1CC[C@]2(C)[C@@H]1[C@H](O)C[C@@H]1[C@@]3(C)CC[C@H](O)C(C)(C)[C@@H]3[C@@H](O[C@@H]3O[C@H](CO)[C@@H](O)[C@H](O)[C@H]3O[C@@H]3O[C@@H](C)[C@H](O)[C@@H](O)[C@H]3O)C[C@]12C` [ginsenoside Re], the “NGFR (p75) mRNA level” value in the assay with NGFR (p75) is given as “significantly increased”. Also, in the assay with p75, the p75 protein expression entry is listed as “switched to p75-positive N2a cells to the same or more extent as NGF”. In addition, the “expression of TrkA” value in the assay with TrkA was “increased the expression of TrkA in a dose-dependent manner”. Further, the “production of MAP-2 protein” value in the assay on MAP-2 [1] is reported as “stimulated effectively the production of MAP-2 protein”. In the assay on ChAT, the “ChAT expression on co-treatment with K252a compared with single treatment” value is listed as “inhibited”. Also, the “Akt activation (phosphorylation)” value with Akt was “could activate ERK and Akt with phosphorylation as much as NGF”. Further, in the assay with MAP-2 [2], the “expression of MAP-2 mRNA” value was “significantly increased”.
